According to patent US20170190671A1, “BIS(ARYL)CATECHOL DERIVATIVES AS HERBICIDES” (E I DU PONT DE NEMOURS AND COMPANY, priority 2014, published 2017):

Key:
Test in all cases: Test D postemergence
Format in all cases: in vivo
Conditions in all cases: scale 0 to 100
[1] = test system: blackgrass (Alopecurus myosuroides)
Text: (§1) Seeds of plant species selected from bluegrass (annual bluegrass, Poa annua), blackgrass (Alopecurus myosuroides), canarygrass (Phalaris minor), chickweed (common chickweed, Stellaria media), cutleaf geranium (Geranium dissectum), galium (catchweed bedstraw, Galium aparine), downy bromegrass (Bromus tectorum), field poppy (Papaver rhoeas), field violet (Viola arvensis), green foxtail (Setaria viridis), deadnettle (henbit deadnettle, Lamium amplexicaule), Italian ryegrass (Lolium multiflorum), kochia (Kochia scoparia), lambsquarters (Chenopodium album), oilseed rape (Brassica napus), pigweed (Amaranthus retroflexus), chamomile (scentless chamomile, Matricaria inodora), Russian thistle (Salsola kali), speedwell (bird's-eye speedwell, Veronica persica), spring barley (Hordeum vulgare), spring wheat (Triticum aestivum), wild buckwheat (Polygonum convolvulus), wild mustard (Sinapis arvensis), wild oat (Avenafatua), wild radish (Raphanus raphanistrum), windgrass (Apera spica-venti), winter barley (Hordeum vulgare), and winter wheat (Triticum aestivum) were planted into a silt loam soil and treated preemergence with test chemicals formulated in a non-phytotoxic solvent mixture which included a surfactant.
(§2) At the same time, these species were planted in pots containing Redi-Earth® planting medium (Scotts Company, 14111 Scottslawn Road, Marysville, Ohio 43041) comprising spaghnum peat moss, vermiculite, wetting agent and starter nutrients and treated with postemergence applications of the test chemicals formulated in the same manner. Plants ranged in height from 2 to 18 cm (1- to 4-leaf stage). Treated plants and controls were maintained in a controlled growth environment for 14 to 21 days after which time all species were compared to controls and visually evaluated. Plant response ratings, summarized in Table D, are based on a scale of 0 to 100 where 0 is no effect and 100 is complete control. A dash (-) response means no test result.

[2] = test system: bluegrass (annual bluegrass, Poa annua)
Text: as §1, §2

[3] = test system: canarygrass (Phalaris minor)
Text: as §1, §2

[4] = test system: chamomile (scentless chamomile, Matricaria inodora)
Text: as §1, §2

[5] = test system: chickweed (common chickweed, Stellaria media)
Text: as §1, §2

[6] = test system: deadnettle (henbit deadnettle, Lamium amplexicaule)
Text: as §1, §2

[7] = test system: downy bromegrass (Bromus tectorum)
Text: as §1, §2

[8] = test system: field poppy (Papaver rhoeas)
Text: as §1, §2

[9] = test system: field violet (Viola arvensis)
Text: as §1, §2

[10] = test system: green foxtail (Setaria viridis)
Text: as §1, §2

kochia (Kochia scoparia) = test system: kochia (Kochia scoparia)
Text: as §1, §2

[11] = test system: lambsquarters (Chenopodium album)
Text: as §1, §2

[12] = test system: oilseed rape (Brassica napus)
Text: as §1, §2

[13] = test system: pigweed (Amaranthus retroflexus)
Text: as §1, §2

[14] = test system: spring wheat (Triticum aestivum)
Text: as §1, §2

[15] = test system: wild buckwheat (Polygonum convolvulus)
Text: as §1, §2

[16] = test system: wild mustard (Sinapis arvensis)
Text: as §1, §2

[17] = test system: winter barley (Hordeum vulgare)
Text: as §1, §2

[18] = test system: winter wheat (Triticum aestivum)
Text: as §1, §2

[19] = test system: Russian thistle (Salsola kali)
Text: as §1, §2

N#Cc1cccc(Oc2ncc(Cl)cn2)c1Oc1ncc(Cl)cn1 [Compound 3, 2,3-bis[(5-chloro-2-pyrimidinyl)oxy]benzonitrile]
35: Plant response rating, Chamomile ([4]; 125 g ai/ha) | Plant response rating, Field Poppy ([8]; 16 g ai/ha)
95: Plant response rating, Buckwheat, Wild ([15]; 62 g ai/ha)
80: Plant response rating, Chickweed ([5]; 62 g ai/ha) | Plant response rating, Deadnettle ([6]; 125 g ai/ha) | Plant response rating, Lambsquarters ([11]; 31 g ai/ha)
85: Plant response rating, Kochia (kochia (Kochia scoparia); 16 g ai/ha) | Plant response rating, Buckwheat, Wild ([15]; 16 g ai/ha) | Plant response rating, Mustard, Wild ([16]; 125 g ai/ha)
60: Plant response rating, Deadnettle ([6]; 16 g ai/ha) | Plant response rating, Oilseed Rape ([12]; 62 g ai/ha) | Plant response rating, Mustard, Wild ([16]; 31 g ai/ha)
5: Plant response rating, Blackgrass ([1]; 16 g ai/ha) | Plant response rating, Canarygrass ([3]; 16 g ai/ha) | Plant response rating, Wheat, Spring ([14]; 62 g ai/ha) | Plant response rating, Barley, Winter ([17]; 31 g ai/ha)
50: Plant response rating, Chickweed ([5]; 16 g ai/ha)
20: Plant response rating, Blackgrass ([1]; 125 g ai/ha) | Plant response rating, Bluegrass ([2]; 31 g ai/ha) | Plant response rating, Canarygrass ([3]; 125 g ai/ha) | Plant response rating, Chamomile ([4]; 62 g ai/ha) | Plant response rating, Bromegrass, Downy ([7]; 31 g ai/ha) | Plant response rating, Foxtail, Green ([10]; 62 g ai/ha)
70: Plant response rating, Chickweed ([5]; 31 g ai/ha) | Plant response rating, Deadnettle ([6]; 31 g ai/ha) | Plant response rating, Deadnettle ([6]; 62 g ai/ha) | Plant response rating, Field Poppy ([8]; 125 g ai/ha) | Plant response rating, Lambsquarters ([11]; 16 g ai/ha)
30: Plant response rating, Bluegrass ([2]; 125 g ai/ha)
65: Plant response rating, Mustard, Wild ([16]; 62 g ai/ha)
90: Plant response rating, Field Violet ([9]; 16 g ai/ha) | Plant response rating, Oilseed Rape ([12]; 125 g ai/ha) | Plant response rating, Buckwheat, Wild ([15]; 31 g ai/ha)
0: Plant response rating, Chamomile ([4]; 16 g ai/ha) | Plant response rating, Chamomile ([4]; 31 g ai/ha) | Plant response rating, Wheat, Spring ([14]; 16 g ai/ha) | Plant response rating, Wheat, Spring ([14]; 31 g ai/ha) | Plant response rating, Barley, Winter ([17]; 16 g ai/ha) | Plant response rating, Wheat, Winter ([18]; 16 g ai/ha)
40: Plant response rating, Field Poppy ([8]; 31 g ai/ha) | Plant response rating, Foxtail, Green ([10]; 125 g ai/ha) | Plant response rating, Oilseed Rape ([12]; 16 g ai/ha)
25: Plant response rating, Bluegrass ([2]; 62 g ai/ha) | Plant response rating, Bromegrass, Downy ([7]; 62 g ai/ha) | Plant response rating, Bromegrass, Downy ([7]; 125 g ai/ha)
10: Plant response rating, Blackgrass ([1]; 31 g ai/ha) | Plant response rating, Canarygrass ([3]; 31 g ai/ha) | Plant response rating, Bromegrass, Downy ([7]; 16 g ai/ha) | Plant response rating, Foxtail, Green ([10]; 16 g ai/ha) | Plant response rating, Barley, Winter ([17]; 62 g ai/ha) | Plant response rating, Wheat, Winter ([18]; 31 g ai/ha) | Plant response rating, Wheat, Winter ([18]; 62 g ai/ha)
100: Plant response rating, Chickweed ([5]; 125 g ai/ha) | Plant response rating, Field Violet ([9]; 31 g ai/ha) | Plant response rating, Field Violet ([9]; 62 g ai/ha) | Plant response rating, Field Violet ([9]; 125 g ai/ha) | Plant response rating, Kochia (kochia (Kochia scoparia); 31 g ai/ha) | Plant response rating, Kochia (kochia (Kochia scoparia); 62 g ai/ha) | Plant response rating, Kochia (kochia (Kochia scoparia); 125 g ai/ha) | Plant response rating, Lambsquarters ([11]; 62 g ai/ha) | Plant response rating, Lambsquarters ([11]; 125 g ai/ha) | Plant response rating, Pigweed ([13]; 16 g ai/ha) | Plant response rating, Pigweed ([13]; 31 g ai/ha) | Plant response rating, Pigweed ([13]; 62 g ai/ha) | Plant response rating, Pigweed ([13]; 125 g ai/ha) | Plant response rating, Buckwheat, Wild ([15]; 125 g ai/ha)
55: Plant response rating, Field Poppy ([8]; 62 g ai/ha) | Plant response rating, Oilseed Rape ([12]; 31 g ai/ha)
15: Plant response rating, Blackgrass ([1]; 62 g ai/ha) | Plant response rating, Bluegrass ([2]; 16 g ai/ha) | Plant response rating, Canarygrass ([3]; 62 g ai/ha) | Plant response rating, Foxtail, Green ([10]; 31 g ai/ha) | Plant response rating, Wheat, Spring ([14]; 125 g ai/ha) | Plant response rating, Barley, Winter ([17]; 125 g ai/ha) | Plant response rating, Wheat, Winter ([18]; 125 g ai/ha)
45: Plant response rating, Mustard, Wild ([16]; 16 g ai/ha)

Fc1cccc(Oc2ncc(C(F)(F)F)cn2)c1Oc1ncc(Cl)cn1 [Compound 42, 5-chloro-2-[2-fluoro-6-[[5-(trifluoromethyl)-2-pyrimidinyl]oxy]phenoxy]pyrimidine]
30: Plant response rating, Bromegrass, Downy ([7]; 16 g ai/ha)
20: Plant response rating, Blackgrass ([1]; 16 g ai/ha) | Plant response rating, Wheat, Winter ([18]; 125 g ai/ha)
55: Plant response rating, Blackgrass ([1]; 31 g ai/ha) | Plant response rating, Field Poppy ([8]; 16 g ai/ha)
0: Plant response rating, Chamomile ([4]; 16 g ai/ha) | Plant response rating, Chamomile ([4]; 31 g ai/ha) | Plant response rating, Wheat, Spring ([14]; 16 g ai/ha) | Plant response rating, Wheat, Winter ([18]; 16 g ai/ha)
65: Plant response rating, Canarygrass ([3]; 31 g ai/ha) | Plant response rating, Chickweed ([5]; 16 g ai/ha) | Plant response rating, Chickweed ([5]; 31 g ai/ha) | Plant response rating, Field Violet ([9]; 16 g ai/ha) | Plant response rating, Field Violet ([9]; 31 g ai/ha)
40: Plant response rating, Deadnettle ([6]; 31 g ai/ha) | Plant response rating, Bromegrass, Downy ([7]; 62 g ai/ha)
75: Plant response rating, Blackgrass ([1]; 125 g ai/ha) | Plant response rating, Canarygrass ([3]; 125 g ai/ha) | Plant response rating, Deadnettle ([6]; 125 g ai/ha) | Plant response rating, Field Poppy ([8]; 31 g ai/ha) | Plant response rating, Oilseed Rape ([12]; 16 g ai/ha) | Plant response rating, Oilseed Rape ([12]; 31 g ai/ha) | Plant response rating, Buckwheat, Wild ([15]; 16 g ai/ha)
70: Plant response rating, Russian Thistle ([19]; 125 g ai/ha) | Plant response rating, Bluegrass ([2]; 125 g ai/ha) | Plant response rating, Canarygrass ([3]; 62 g ai/ha) | Plant response rating, Foxtail, Green ([10]; 125 g ai/ha) | Plant response rating, Lambsquarters ([11]; 16 g ai/ha) | Plant response rating, Mustard, Wild ([16]; 16 g ai/ha) | Plant response rating, Mustard, Wild ([16]; 31 g ai/ha)
15: Plant response rating, Chamomile ([4]; 125 g ai/ha) | Plant response rating, Foxtail, Green ([10]; 31 g ai/ha) | Plant response rating, Wheat, Spring ([14]; 125 g ai/ha) | Plant response rating, Barley, Winter ([17]; 125 g ai/ha)
35: Plant response rating, Canarygrass ([3]; 16 g ai/ha) | Plant response rating, Deadnettle ([6]; 16 g ai/ha) | Plant response rating, Bromegrass, Downy ([7]; 31 g ai/ha)
90: Plant response rating, Chickweed ([5]; 125 g ai/ha) | Plant response rating, Field Violet ([9]; 62 g ai/ha) | Plant response rating, Lambsquarters ([11]; 62 g ai/ha)
80: Plant response rating, Buckwheat, Wild ([15]; 31 g ai/ha)
50: Plant response rating, Bluegrass ([2]; 16 g ai/ha) | Plant response rating, Bluegrass ([2]; 31 g ai/ha)
100: Plant response rating, Field Poppy ([8]; 62 g ai/ha) | Plant response rating, Field Poppy ([8]; 125 g ai/ha) | Plant response rating, Kochia (kochia (Kochia scoparia); 31 g ai/ha) | Plant response rating, Kochia (kochia (Kochia scoparia); 62 g ai/ha) | Plant response rating, Kochia (kochia (Kochia scoparia); 125 g ai/ha) | Plant response rating, Pigweed ([13]; 16 g ai/ha) | Plant response rating, Pigweed ([13]; 31 g ai/ha) | Plant response rating, Pigweed ([13]; 62 g ai/ha) | Plant response rating, Pigweed ([13]; 125 g ai/ha) | Plant response rating, Buckwheat, Wild ([15]; 125 g ai/ha) | Plant response rating, Mustard, Wild ([16]; 62 g ai/ha) | Plant response rating, Mustard, Wild ([16]; 125 g ai/ha)
5: Plant response rating, Chamomile ([4]; 62 g ai/ha) | Plant response rating, Wheat, Spring ([14]; 31 g ai/ha) | Plant response rating, Wheat, Spring ([14]; 62 g ai/ha) | Plant response rating, Barley, Winter ([17]; 16 g ai/ha) | Plant response rating, Barley, Winter ([17]; 31 g ai/ha) | Plant response rating, Wheat, Winter ([18]; 31 g ai/ha)
85: Plant response rating, Chickweed ([5]; 62 g ai/ha) | Plant response rating, Kochia (kochia (Kochia scoparia); 16 g ai/ha) | Plant response rating, Lambsquarters ([11]; 31 g ai/ha) | Plant response rating, Oilseed Rape ([12]; 62 g ai/ha)
95: Plant response rating, Field Violet ([9]; 125 g ai/ha) | Plant response rating, Lambsquarters ([11]; 125 g ai/ha) | Plant response rating, Oilseed Rape ([12]; 125 g ai/ha) | Plant response rating, Buckwheat, Wild ([15]; 62 g ai/ha)
60: Plant response rating, Blackgrass ([1]; 62 g ai/ha) | Plant response rating, Bluegrass ([2]; 62 g ai/ha) | Plant response rating, Deadnettle ([6]; 62 g ai/ha) | Plant response rating, Bromegrass, Downy ([7]; 125 g ai/ha) | Plant response rating, Foxtail, Green ([10]; 62 g ai/ha)
25: Plant response rating, Russian Thistle ([19]; 62 g ai/ha)
10: Plant response rating, Russian Thistle ([19]; 16 g ai/ha) | Plant response rating, Russian Thistle ([19]; 31 g ai/ha) | Plant response rating, Foxtail, Green ([10]; 16 g ai/ha) | Plant response rating, Barley, Winter ([17]; 62 g ai/ha) | Plant response rating, Wheat, Winter ([18]; 62 g ai/ha)
